# Data reported in patent publication US8637511B2, “Aminopyrimidines useful as kinase inhibitors” (Vertex Pharmaceuticals Incorporated, priority 2005, dated 2014).
# pKi: −log10 of the molar value. Read-outs that look alike come from different tables or passages of the source.
# Molecular target: T1, FLT-3 (Homo sapiens, UniProt P36888)
# T1 sequence (P36888 27-993): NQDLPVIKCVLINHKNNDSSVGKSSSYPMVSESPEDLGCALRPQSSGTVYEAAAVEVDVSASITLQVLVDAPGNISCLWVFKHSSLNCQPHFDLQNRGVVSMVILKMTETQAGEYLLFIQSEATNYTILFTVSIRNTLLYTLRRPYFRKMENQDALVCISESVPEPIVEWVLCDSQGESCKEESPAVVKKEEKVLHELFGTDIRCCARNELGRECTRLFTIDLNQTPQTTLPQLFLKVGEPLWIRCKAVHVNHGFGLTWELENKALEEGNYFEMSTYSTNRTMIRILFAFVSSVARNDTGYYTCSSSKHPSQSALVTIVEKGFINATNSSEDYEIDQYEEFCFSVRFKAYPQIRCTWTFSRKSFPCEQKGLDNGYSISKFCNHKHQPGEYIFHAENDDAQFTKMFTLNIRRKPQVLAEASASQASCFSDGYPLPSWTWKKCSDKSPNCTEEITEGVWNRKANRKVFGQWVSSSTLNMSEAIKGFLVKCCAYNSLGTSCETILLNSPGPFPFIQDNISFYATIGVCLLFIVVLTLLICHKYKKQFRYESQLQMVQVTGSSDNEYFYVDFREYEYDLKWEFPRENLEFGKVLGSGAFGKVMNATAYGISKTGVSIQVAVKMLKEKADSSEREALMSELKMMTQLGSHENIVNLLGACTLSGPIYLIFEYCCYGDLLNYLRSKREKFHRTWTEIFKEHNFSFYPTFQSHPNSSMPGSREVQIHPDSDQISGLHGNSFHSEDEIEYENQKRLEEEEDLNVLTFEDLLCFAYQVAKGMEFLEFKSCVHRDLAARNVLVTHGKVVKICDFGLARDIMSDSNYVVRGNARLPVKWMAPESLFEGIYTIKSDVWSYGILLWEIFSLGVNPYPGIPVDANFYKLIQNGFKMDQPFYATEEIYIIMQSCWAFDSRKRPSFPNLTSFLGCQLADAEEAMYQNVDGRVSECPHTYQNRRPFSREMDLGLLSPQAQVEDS
# Experiment: FLT-3 inhibition assay, radiometric filter-binding
# Assay type: biochemical
# Description: This assay monitors the 33P incorporation into a substrate poly(Glu, Tyr) 4:1 (pE4Y). […] Final substrate concentrations in the assay were 90 μM ATP and 0.5 mg/ml pE4Y (both from Sigma Chemicals, St. Louis, Mo.). […] Reactions were carried out at room temperature.
# Two assay solutions were prepared. Solution 1 contains 100 mM HEPES (pH 7.5), 10 mM MgCl2, 25 mM NaCl, 1 mg/ml pE4Y and […] (containing 0.3 mCi of [γ-33^P]ATP for each reaction). Solution 2 contains 100 mM HEPES (pH 7.5), 10 mM MgCl2, 25 mM NaCl, 2 mM DTT, 0.02% BSA and 3 nM FLT-3. The assay was run on a 96 well plate by mixing 50 μl each of Solution 1 and […] of the compounds of the present invention. The reaction was initiated with Solution 2. […] All of the reaction volume was then transferred to a filter plate and washed with 5% TCA by a Harvester 9600 from TOMTEC (Hamden, Conn.). The amount of ^33P incorporation into pE4y was analyzed by a Packard Top Count Microplate Scintillation Counter (Meriden, Conn.). The data was fitted using Prism software to get an IC50 or Ki.
Compound,pKi,pKi (read-out: FLT-3 Ki value)
Cc1cc(Nc2cc(N3CCC3)nc(Sc3ccc(C(=O)NCc4ccccc4)cc3)n2)n[nH]1 [Compound 19],6.00 to 6.82,
Cc1cc(Nc2cc(N3CCC3)nc(Sc3ccc(C(=O)N4CCCC4)cc3)n2)n[nH]1 [Compound 22],6.82 to 7.30,
Cc1cc(Nc2cc(N3CCC3)nc(Sc3ccc(C(=O)NC4CCCC4)cc3)n2)n[nH]1 [Compound 23],,6.00 to 6.82
Cc1cc(Nc2cc(N3CCC3)nc(Sc3ccc(C(=O)NCc4ccccc4Cl)cc3)n2)n[nH]1 [Compound 24],6.00 to 6.82,
Cc1cc(Nc2cc(N3CCC3)nc(Sc3ccc(C(=O)Nc4ccccc4Cl)cc3)n2)[nH]n1 [Compound 48],6.00 to 6.82,
CCCNC(=O)Nc1ccc(Sc2nc(Nc3cc(C)[nH]n3)cc(N3CCC3)n2)cc1 [Compound 73],6.82 to 7.30,
Cc1cc(Nc2cc(N3CCC3)nc(Sc3ccc(NC(=O)NCc4ccccc4)cc3)n2)n[nH]1 [Compound 74],6.82 to 7.30,
CCC(=O)Nc1ccc(Sc2nc(Nc3cc(C4CC4)n[nH]3)cc(N3CC(N4CCOCC4)C3)n2)cc1 [Compound 78],≥ 7.30,
CCC(=O)Nc1ccc(Sc2nc(Nc3cc(C)n[nH]3)cc(N3CC(O)(C(F)(F)F)C3)n2)cc1 [Compound 94],≥ 7.30,
CCC(=O)Nc1ccc(Sc2nc(Nc3cc(C)n[nH]3)cc(N3CC(C)(OC(C)C)C3)n2)cc1 [Compound 95],6.82 to 7.30,
CCC(=O)Nc1ccc(Sc2nc(Nc3cc(C)n[nH]3)cc(N3CC(C)(OC(C)(C)C)C3)n2)cc1 [Compound 96],,6.82 to 7.30
Cc1cc(Nc2cc(N3CCC3)nc(Sc3ccc(N)cc3)n2)[nH]n1 [Compound 108],,≥ 7.30
Cc1cc(Nc2cc(N3CCC3)nc(Sc3ccc(NC(=O)C4CC4(F)F)cc3)n2)[nH]n1 (stereo not drawn) [Compound 112],,≥ 7.30
Cc1cc(Nc2cc(N3CCC3)nc(Sc3ccc(NC(=O)C(C)(C)C)cc3)n2)[nH]n1 [Compound 114],,6.00 to 6.82
Cc1cc(Nc2cc(N3CC(C)(O)C3)nc(Sc3ccc(NC(=O)c4ccccc4C(F)(F)F)cc3)n2)[nH]n1 [Compound 115],6.82 to 7.30,
COc1ccc(C(=O)Nc2ccc(Sc3nc(Nc4cc(C)n[nH]4)cc(N4CCC4)n3)cc2)cc1 [Compound 117],,6.00 to 6.82
Cc1cc(Nc2cc(N3CCC3)nc(Sc3ccc(NC(=O)CCC(F)(F)F)cc3)n2)[nH]n1 [Compound 121],,6.82 to 7.30
Cc1cc(Nc2cc(N3CCC3)nc(Sc3ccc(NC(=O)c4ccccc4N(C)C)cc3)n2)[nH]n1 [Compound 124],,6.00 to 6.82
COC1CN(c2cc(Nc3cc(C)n[nH]3)nc(Sc3ccc(NC(=O)c4ccccc4C(F)(F)F)cc3)n2)C1 [Compound 126],6.82 to 7.30,
Cc1cc(Nc2cc(N3CCC3)nc(Sc3ccc(NC(=O)C(C)CC(F)(F)F)cc3)n2)[nH]n1 (stereo not drawn) [Compound 127],,6.00 to 6.82
Cc1cc(Nc2cc(N3CC(O)(C4CC4)C3)nc(Sc3ccc4ccccc4c3)n2)n[nH]1 [Compound 131],≥ 7.30,
Cc1cc(Nc2cc(N3CCC3)nc(Oc3ccc(NC(=O)c4ccccc4C(F)(F)F)cc3)n2)[nH]n1 [Compound 134],6.82 to 7.30,
Cc1cc(Nc2cc(N3CCC3)nc(Sc3ccc(NC(=O)c4ccc(CN(C)C)cc4)cc3)n2)[nH]n1 [Compound 137],,6.82 to 7.30
Cc1ccc(C(=O)Nc2ccc(Sc3nc(Nc4cc(C)n[nH]4)cc(N4CCC4)n3)cc2)cn1 [Compound 145],,6.00 to 6.82
Cc1cc(Nc2cc(N3CCC3)nc(Sc3ccc(NC(=O)c4ccncc4C(F)(F)F)cc3)n2)[nH]n1 [Compound 146],6.00 to 6.82,
O=C(CC(F)(F)F)Nc1ccc(Sc2nc(Nc3cc[nH]n3)cc(N3CC(F)(C4CC4)C3)n2)cc1 [Compound 148],6.82 to 7.30,
Cc1cc(Nc2cc(N3CCC3)nc(Sc3ccc(NC(=O)c4cc(C)nc(Cl)c4)cc3)n2)[nH]n1 [Compound 149],,6.00 to 6.82
Cc1cc(Nc2cc(N3CCC3)nc(Sc3ccc(NS(C)(=O)=O)cc3)n2)[nH]n1 [Compound 150],,≥ 7.30
Cc1cc(Nc2cc(N3CCC3)nc(Sc3ccc(NC(=O)C(F)(F)F)cc3)n2)[nH]n1 [Compound 158],,6.82 to 7.30
Cc1cc(Nc2cc(N3CC(N4CCCC4)C3)nc(Sc3ccc4ncccc4c3)n2)n[nH]1 [Compound 159],≥ 7.30,
